This note sets out measurements from ChEMBL document CHEMBL4483862, “Open-source discovery of chemical leads for next-generation chemoprotective antimalarials” (2018).

In this assay the test system is Plasmodium berghei. Briefly: Luciferase/luciferin-expressing antifolate-resistant parasites were used to infect a culture of HepG2 cells that were pre-incubated with compounds. Infected hepatocytes emit light due to the luciferase reaction. Assay results are presented as the percent inhibition of light emission compared to control. […]. The conditions noted are these: sporozoite; for IC90: read-out: LUCIFERASE INFECTION ASSAY - IC90. The class given is functional.

Where [1] appears, read: read-out: LUCIFERASE INFECTION ASSAY - IC50.

Turning to `CC(C)(C)c1cc(NC(=O)CN2CCN(CCOc3ccccc3)CC2)n(-c2ccccc2)n1`, the IC90 is over 10 µM. Besides, the IC50 (PBLUC_HILL_SLOPE 3.74, PBLUC_R_SQUARED 0.753, read-out: LUCIFERASE INFECTION ASSAY - IC50) was determined as 6.22 µM.

In the case of `CCNC(=O)C1(C)CCCN1C(=O)c1ccc(OC)cc1` (centres undefined), the IC90 is over 11.4 µM. Moreover, the IC50 under setting [1] was over 11.4 µM.

For `Cc1cc(C)c(CSC2=NCCCN2C2CCCCC2)c(C)c1`, the concentration for an effect of 90% (IC90) was over 8.99 µM. Further, the IC50 under setting [1] is over 8.99 µM.

Turning to `CCCCc1c(O)cc2n(c1=O)-c1ccc(Cl)cc1C2(C)C`, the concentration for an effect of 90% (IC90) was over 10.4 µM. Also, under “HEPG2TOX_HILL_SLOPE 9.65, HEPG2TOX_R_SQUARED 0.788, PBLUC_HILL_SLOPE 4.5, PBLUC_R_SQUARED 0.532, read-out: LUCIFERASE INFECTION ASSAY - IC50”, the half-maximal inhibitory concentration (IC50) was 7.82 µM.

As for `CSc1nc(=NC(=O)NS(=O)(=O)Oc2ccc(Cl)cc2Cl)n2nc(C3CC3)cc2[nH]1`, the IC90 is over 6.74 µM. The IC50 under setting [1] is over 6.74 µM.

For the molecule `COc1cc(OC)c(C(=O)/C=C/c2cccc(C#N)c2)cc1Cl`, the IC90 was determined as 4.08 µM. Where the note is “HEPG2TOX_HILL_SLOPE 2.22, HEPG2TOX_R_SQUARED 0.565, PBLUC_HILL_SLOPE 10.9, PBLUC_R_SQUARED 0.489, read-out: LUCIFERASE INFECTION ASSAY - IC50”, the IC50 amounted to 3.33 µM.

Take `CC/C=C1/CC(=O)N(c2ccccc2)C1=O`: the IC90 worked out at 14.2 µM. The IC50 (PBLUC_HILL_SLOPE 3.2, PBLUC_R_SQUARED 0.213, read-out: LUCIFERASE INFECTION ASSAY - IC50) was found to be 7.15 µM.

`COc1cc(C(F)(F)F)nc2ccc(C#CCOC(=O)c3ccccc3Cl)cc12`: the IC90 is over 7.86 µM. For the same molecule, under setting [1], the IC50 was over 7.86 µM.

`CC(C)(C)c1ccc(OCC(=O)N2CCC(C(N)=O)CC2)cc1`: the IC90 is over 10.4 µM. Further, under setting [1], the IC50 is over 10.4 µM.

Take `CC(C)(C)C(=O)N1CCC(C(=O)N(Cc2ccccc2)c2nc3c(s2)CCCC3)CC1`: the concentration for an effect of 90% (IC90) was over 10 µM. Moreover, under setting [1], the IC50 was over 10 µM.

Take `CCOC(=O)c1c(NC(=O)COC(=O)c2c(C)noc2C)sc(-c2ccccc2)c1C`: the IC90 is over 10 µM. Also, under setting [1], the half-inhibitory concentration (IC50) is over 10 µM.

Consider `Cn1c(Nc2ccccc2)nc2cnc(Nc3ccc(Oc4ccccc4)cc3)cc21`, for which the IC90 was over 10 µM. Besides, the 50% inhibitory concentration (IC50) (PBLUC_HILL_SLOPE 3.01, PBLUC_R_SQUARED 0.581, read-out: LUCIFERASE INFECTION ASSAY - IC50) came out at 5.93 µM.

Consider `O=C(O)c1ccc(N=C2C=C(NS(=O)(=O)c3ccc(Cl)cc3)c3ccccc3C2=O)cc1`, for which the IC90 is over 10 µM. In addition, the IC50 under setting [1] is over 10 µM.

Take `CCCn1c(C)cc(/C=C(\C#N)C(=O)Nc2c(C)cccc2C(C)C)c1C`: the concentration for an effect of 90% (IC90) amounted to 2.35 µM. Also, the IC50 (HEPG2TOX_HILL_SLOPE 4.53, HEPG2TOX_R_SQUARED 0.804, PBLUC_HILL_SLOPE 3.44, PBLUC_R_SQUARED 0.565, read-out: LUCIFERASE INFECTION ASSAY - IC50) was 1.24 µM.

As to `CCOC(=O)c1c(C)[nH]c(C(=O)C(C)OC(=O)c2c3c(nc4ccccc24)/C(=C/c2ccc(F)cc2)CCC3)c1C` (centres undefined), the concentration for an effect of 90% (IC90) is over 10 µM. Further, the concentration for half-maximal inhibition (IC50) (HEPG2TOX_HILL_SLOPE 0.182, HEPG2TOX_R_SQUARED 0.103, read-out: LUCIFERASE INFECTION ASSAY - IC50) was over 10 µM.

Consider `Cc1ccnc(NC(c2cccc(C)n2)c2ccc3cccnc3c2O)c1` (centres undefined), for which the IC90 was over 9.26 µM. Moreover, the half-inhibitory concentration (IC50) (FFLUC_HILL_SLOPE 20.2, FFLUC_R_SQUARED 0.523, HEPG2TOX_HILL_SLOPE 12.4, HEPG2TOX_R_SQUARED 0.193, PBLUC_HILL_SLOPE 13.3, PBLUC_R_SQUARED 0.0907, read-out: LUCIFERASE INFECTION ASSAY - IC50) came out at 7.89 µM.

As to `CCc1cc(C(=O)Nc2ncccc2O)sc1C`, the 90% effect concentration (IC90) is over 10 µM. Also, under “FFLUC_HILL_SLOPE 0.955, FFLUC_R_SQUARED 0.833, PBLUC_HILL_SLOPE 2.67, PBLUC_R_SQUARED 0.448, read-out: LUCIFERASE INFECTION ASSAY - IC50”, the half-maximal inhibitory concentration (IC50) was determined as 4.95 µM.

In the case of `CC(=O)NCCC(=O)N(c1ccc(Oc2ccccc2)cc1)c1nc2ccccc2s1`, the IC90 is over 10 µM. Under “PBLUC_HILL_SLOPE 4.74, PBLUC_R_SQUARED 0.599, read-out: LUCIFERASE INFECTION ASSAY - IC50”, the IC50 worked out at 6.78 µM.

Consider `N#C/C(=C\c1ccc(N(c2ccccc2)c2ccccc2)cc1)C(=O)Nc1nccs1`, for which the IC90 amounted to 1.79 µM. The IC50 under setting [1] came out at 0.525 µM.

For the molecule `Fc1ccc(NC(=S)N2CCN(c3ncnc4sccc34)CC2)c(F)c1`, the IC90 was 2.97 µM. In addition, the half-maximal inhibitory concentration (IC50) (HEPG2TOX_HILL_SLOPE 0.955, HEPG2TOX_R_SQUARED 0.941, PBLUC_HILL_SLOPE 17.3, PBLUC_R_SQUARED 0.219, read-out: LUCIFERASE INFECTION ASSAY - IC50) turned out to be 2.62 µM.

Turning to `CCOc1ccc(C(C)NC(=O)C(=O)c2c(C)nn(-c3ccccc3)c2C)cc1` (centres undefined), the IC90 is 9.94 µM. Besides, the IC50 (HEPG2TOX_HILL_SLOPE 9.83, HEPG2TOX_R_SQUARED 0.28, PBLUC_HILL_SLOPE 22.8, PBLUC_R_SQUARED 0.679, read-out: LUCIFERASE INFECTION ASSAY - IC50) came out at 9.03 µM.

On to `CC(=O)c1ccc(NC(=O)N2[C@@H]3CC[C@@H](C3)[C@H]2c2nc3cccc(OCc4ccc(F)cc4)c3[nH]2)cc1`, for which the concentration for an effect of 90% (IC90) is over 10 µM. Besides, the IC50 (FFLUC_HILL_SLOPE 7.32, FFLUC_R_SQUARED 0.306, PBLUC_HILL_SLOPE 12.2, PBLUC_R_SQUARED 0.357, read-out: LUCIFERASE INFECTION ASSAY - IC50) worked out at 9.72 µM.

On to `Cc1cc(I)ccc1N1C(=O)C=CC1=O`, for which the IC90 was over 10.5 µM. In addition, under setting [1], the IC50 was found to be 5.55 µM.

Consider `Cc1ccc(/C=C2\CCc3c2nc2ccccc2c3C(=O)OCC#N)cc1`, for which the 90% effect concentration (IC90) was 0.0147 µM. The IC50 (HEPG2TOX_HILL_SLOPE 0.309, HEPG2TOX_R_SQUARED 0.18, PBLUC_HILL_SLOPE 16.5, PBLUC_R_SQUARED 0.242, read-out: LUCIFERASE INFECTION ASSAY - IC50) came out at 0.0129 µM.

For the molecule `COc1ccccc1N(Cc1nc(N)nc(Nc2ccc(C)cc2)n1)S(=O)(=O)c1cccs1`, the concentration for an effect of 90% (IC90) was determined as 4.3 µM. Moreover, for the setting “HEPG2TOX_HILL_SLOPE 0.853, HEPG2TOX_R_SQUARED 0.978, PBLUC_HILL_SLOPE 2.92, PBLUC_R_SQUARED 0.627, read-out: LUCIFERASE INFECTION ASSAY - IC50”, the IC50 is 2.03 µM.

For `CCc1c(C)sc2nc(SCc3nc4ccccc4s3)n(-c3ccc(O)cc3C)c(=O)c12`, the IC90 was over 10 µM. Moreover, the half-maximal inhibitory concentration (IC50) under setting [1] is over 10 µM.

In the case of `CC(C)NCC(=O)Nc1cccc2c1C(=O)c1ccccc1C2=O`, the concentration for an effect of 90% (IC90) is over 10.2 µM. In addition, the half-inhibitory concentration (IC50) under setting [1] stood at 8.29 µM.

As usually defined, the IC50 is the point on the concentration scale where inhibition reaches its midpoint. In general, IC90 refers to the concentration at which the effect reaches the 90% level.
